Test results published in US20220041559A1, “BENZO-AND PYRIDO-PYRAZOLES AS PROTEIN KINASE INHIBITORS” (ROTTAPHARM BIOTECH S.R.L., priority 2019, published 2022).

Assays:
human FynB = human FynB (Homo sapiens, UniProt P06241); experiment: Inhibition of FynB-induced Tau(Y18)-phosphorylation (cell-based assay, HEK293)
Experimental: HEK293 cells (Human Embryonic Kidney 293) were seeded at 6×10^5 in poly-D-lysine 12 w microplates and grown adherent in medium DMEM/10% FBS at 37° C. with 5% CO2. After 24 h, cells were transfected in order to over-express either constitutively active form of human FynB and Tau protein (isoform 0N4R), through an optimized Lipofectamine® 3000 Transfection protocol (Life Technologies™). A non-transfected sample (negative control) was included in every experiment.
Twenty-four hours from transfection, treatments of cells were performed by adding fresh medium containing diluent (DMSO 0.1% final concentration) or test compounds. The incubation was carried out for 6 or 24 hours at 37° C. with 5% CO2. All experimental conditions were performed in duplicate.
At the end of the incubation, the medium was removed and cellular lysates were obtained by adding M-PER lysis buffer containing a 1× Protease/Phosphatase inhibitors cocktail. Then, lysates were transferred into Eppendorf tubes, sonicated and stored at −80° C.
Protein content was measured by Bradford method. Lysates were analyzed by a customized ELISA assay for Tau phosphorylation (Tyrosine 18 residue-Fyn mediated) and Total amount determination. The net OD values were used to calculate the inhibitory effect of compounds.

U87MG = experiment: Cell viability, ViaCount assay, U87MG; format: cell-based, human; conditions: tested cell lines (U87MG, U373)
Experimental: U87MG: a human glioblastoma astrocytoma from ATCC. Grown in DMEM medium supplemented with 10% FBS at 37° C. with CO2.
Cell viability and total cell count was performed with ViaCount Assay on Guava® Systems, which was able to distinguish viable and non-viable cells based on differential permeabilities of two DNA-binding dyes in the Guava ViaCount® Reagent. 2×10^4 cancer cells were plated in 24 well in DMEM 10%. After 72 h cells were treated with the different compounds for 24, 72 h or 7 days, with a medium change and a second treatment with the product on day 4. At the end of the incubation period the analysis was done following the kit instructions.

U87MG xenograft = experiment: Survival time of intracranial U87MG glioblastoma bearing mice; format: in vivo, athymic Nude mice; conditions: 50 mg/kg orally once a day, day 9 until day 19
Experimental: Human U87MG cancer cell line were implanted in athymic Nude mice by intracranial injection. Mice, divided into two groups, were orally dosed for 10 days either with vehicle or with Compound 5 (50 mg/kg, once a day) from the day 9 until day 19 after injection of tumour cells. The animal survival was tracked over time, mice were monitored for mortality and sacrificed at appearance of signs of distress, neurological deficits, seizure, or significant body weight loss (e.g. >20%).

EGFR [1] = target: T1, EGFR (Homo sapiens, UniProt P00533); experiment: ADP-Glo in vitro kinase assay, EGFR kinase inhibition; format: biochemical; parameters: purchased SignalChem
Experimental: The ADP-Glo™ Kinase Assay (Promega), monitoring ADP produced in the kinase reaction, was performed in two steps. In the first one, after the kinase reaction, the ADP-Glo™ Reagent is added to terminate the kinase reaction and deplete the remaining ATP. In the second step, the Kinase Detection Reagent is added to simultaneously convert ADP to ATP (ATPn or newly synthesized ATP) and introduce luciferase and luciferin, allowing the ATPn to be measured (luciferase/luciferin reaction). The amount of light generated correlates with the amount of ATPn (indirectly with the ADP produced in kinase reaction).
Kinase reaction was performed in 10 μl in a white 384-well plate, inhibitor solutions in DMSO/Kinase buffer (40 mM Tris-Cl, 20 mM MgCl2, 0.1 mg/ml BSA, 50 μM DTT, pH 7.5) and EGFR kinase in Kinase buffer (SignalChem, 2.5 ng/μl final concentration in assay) were pre-incubate 15 minutes at room temperature. At the kinase concentration selected a signal-to negative control ratio >10 was calculated, according to supplier indication. In samples representing the Total enzymatic activity (no inhibitor) or the negative control (no enzyme), inhibitor solution was replaced by diluents (1 DMSO in kinase buffer, final concentration) or ultra-pure water, respectively.
The range of inhibitor concentrations was from 10^−11 M up to 3×10^−6 M (final concentration in assay) and each experimental point was performed in duplicate.
To start the reaction, a substrate/ATP mix (ATP 10 μM final concentration, near to ATP Km value) was added to each sample and after 30 minutes incubation at room temperature, ADP-Glo™ Reagent and Kinase Detection Reagent, incubated in sequence according to the respective incubation time and supplier indication, allowed to stop and develop the kinase reaction. The luminescence was measured with a plate-reading luminometer (Envision 2104 Multilabel reader, PerkinElmer). The percentage of inhibition was calculated towards the Total enzymatic activity and the corresponding curves were analyzed by non linear curve fitting (GraphPad software, version 7 for Windows), allowing to calculate the IC50 value±standard error of the estimate.

EGFR [2] = target: T1, EGFR; experiment: Inhibition of EGF-induced EGFR (Y1068)-phosphorylation (cell-based assay, U87MG); parameters: endogenous in cells; host or cells: U87MG; conditions: EGF 10 ng/ml, Western blot
Experimental: U87MG cells (Uppsala 87 Malignant Glioma, a human glioblastoma cell line from ATCC) were plated at 3×10^5 cells/well in 12 w microplates and grown adherent in medium DMEM+10% FBS at 37° C. with 5% CO2. After 24 h, medium was removed and starvation was induced overnight in medium DMEM+0.1% FBS (medium starvation). At the end of incubation, treatment of cells was performed by medium replacement and by adding fresh medium containing or not diluent or test compounds (DMSO 0.1% final concentration) diluted in medium starvation. After 1 hour, EGF stimuli (diluted in medium starvation, 10 ng/ml final concentration) was added to each sample, with the exception of basal sample; plate was then incubated for 15 min at 37° C. with 5% CO2. At the end of the incubation, the medium was removed and cellular lysates were obtained by adding M-PER lysis buffer containing 1× Protease/Phosphatase inhibitors cocktail. Then, lysates were transferred into Eppendorf tubes, sonicated and stored at −80° C.
Protein content was measured by Bradford method. Lysates were analyzed by Western blot for EGFR phosphorylation (Tyrosine 1068) and total receptor amount determination. Densitometric analysis of sample lanes were performed by ImageQuant TL software (GE Healthcare Life Sciences). […]

T1 sequence (P00533 25-1210): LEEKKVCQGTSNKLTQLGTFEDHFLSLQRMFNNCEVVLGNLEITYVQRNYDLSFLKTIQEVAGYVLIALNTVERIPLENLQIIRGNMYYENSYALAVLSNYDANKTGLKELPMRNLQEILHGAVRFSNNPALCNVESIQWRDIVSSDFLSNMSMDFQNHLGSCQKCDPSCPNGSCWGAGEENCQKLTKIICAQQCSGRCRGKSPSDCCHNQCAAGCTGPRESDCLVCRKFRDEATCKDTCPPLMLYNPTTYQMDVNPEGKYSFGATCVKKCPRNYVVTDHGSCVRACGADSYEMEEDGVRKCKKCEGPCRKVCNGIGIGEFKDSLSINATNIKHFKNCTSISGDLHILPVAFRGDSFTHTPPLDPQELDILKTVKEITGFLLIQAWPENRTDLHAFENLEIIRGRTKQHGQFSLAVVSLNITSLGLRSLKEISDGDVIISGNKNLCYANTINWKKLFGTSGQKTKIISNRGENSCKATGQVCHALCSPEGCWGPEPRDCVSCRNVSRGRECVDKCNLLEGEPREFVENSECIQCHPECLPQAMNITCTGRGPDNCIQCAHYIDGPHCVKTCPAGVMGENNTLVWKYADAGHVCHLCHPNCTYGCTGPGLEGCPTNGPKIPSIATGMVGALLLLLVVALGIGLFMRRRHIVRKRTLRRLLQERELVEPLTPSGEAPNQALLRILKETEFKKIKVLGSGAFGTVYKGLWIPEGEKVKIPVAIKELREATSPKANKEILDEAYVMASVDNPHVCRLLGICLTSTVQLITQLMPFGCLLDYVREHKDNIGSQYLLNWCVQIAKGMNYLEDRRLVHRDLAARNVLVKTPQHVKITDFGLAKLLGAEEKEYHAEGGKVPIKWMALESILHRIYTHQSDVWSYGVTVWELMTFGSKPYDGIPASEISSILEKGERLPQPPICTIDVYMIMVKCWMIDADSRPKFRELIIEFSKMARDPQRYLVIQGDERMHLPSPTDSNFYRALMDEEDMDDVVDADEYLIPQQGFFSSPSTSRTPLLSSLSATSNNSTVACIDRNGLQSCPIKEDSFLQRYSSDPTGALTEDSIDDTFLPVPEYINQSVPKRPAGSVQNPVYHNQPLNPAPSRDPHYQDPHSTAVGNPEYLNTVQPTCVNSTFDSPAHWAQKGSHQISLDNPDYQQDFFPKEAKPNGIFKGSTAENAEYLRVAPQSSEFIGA
human FynB, sequence (P06241 271-524 limits assumed): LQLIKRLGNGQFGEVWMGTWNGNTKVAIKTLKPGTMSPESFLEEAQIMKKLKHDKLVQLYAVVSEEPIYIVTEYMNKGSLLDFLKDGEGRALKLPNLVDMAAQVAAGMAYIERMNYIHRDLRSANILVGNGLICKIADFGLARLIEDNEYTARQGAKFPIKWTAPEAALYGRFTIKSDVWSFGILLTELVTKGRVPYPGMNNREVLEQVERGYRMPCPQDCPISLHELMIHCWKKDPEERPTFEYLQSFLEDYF

## CN1CCC(c2ccc(C(=O)Nc3n[nH]c4nc(Nc5ccccc5F)ccc34)cc2)CC1 [Compound 5, N-(6-((2-fluorophenyl)amino)-1H-pyrazolo[3,4-b]pyridin-3-yl)-4-(1-methylpiperidin-4-yl)benzamide]
Human FynB; HEK293 over-expressing FynB and Tau 0N4R, incubation 6 or 24 hours, ELISA
  IC50: 300 nM
Human FynB; summary of Table 20
  Inhibition of FynB-induced Tau(Y18)-phosphorylation, result in words: best inhibitors
U87MG
  reduction of cell viability, result in words: active in reducing cell viability
U87MG xenograft
  median survival time from tumour cell injection: 70 days
EGFR [1]; ATP 10 μM, 30 minutes at room temperature
  IC50: 6 nM
EGFR [1]; text summary of Table 18
  EGFR kinase inhibition, result in words: more active
EGFR [2]
  IC50: 3000 nM
